# Measurements published in patent US20220119354A1, “DIAMINO-SUBSTITUTED PYRIDINES AND PYRIMIDINES AS HERBICIDES” (FMC Corporation, priority 2019, published 2022).
# Columns and labels:
# Type in all cases: in vivo
# [1] = tested on: barnyardgrass (Echinochloa crus-galli); assay: Test A preemergence, barnyardgrass; conditions: 0 to 100 scale; for Barnyardgrass plant response rating: 0 is no effect, 100 is complete control
# Method in brief: (§1)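 Compound, in a non-phytotoxic solvent blend containing surfactant, is sprayed onto soil immediately after sowing or onto young plants (one- to two-leaf, 2–10 cm). After roughly 10 d under greenhouse conditions, injury is judged by eye relative to untreated plants on a 0–100 control scale.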
# kochia (Kochia scoparia) [2] = assay: Test A preemergence, kochia; conditions: 0 to 100 scale; for Kochia plant response rating: 0 is no effect, 100 is complete control
# Method in brief: as §1
# [3] = tested on: ragweed (common ragweed, Ambrosia elatior); assay: Test A preemergence, ragweed; conditions: 0 to 100 scale; for Ragweed plant response rating: 0 is no effect, 100 is complete control
# Method in brief: as §1
# [4] = tested on: ryegrass, Italian (Lolium multiflorum); assay: Test A preemergence, Italian ryegrass; conditions: 0 to 100 scale; for Ryegrass, Italian plant response rating: 0 is no effect, 100 is complete control
# Method in brief: as §1
# [5] = tested on: foxtail, giant (Setaria faberii); assay: Test A preemergence, giant foxtail; conditions: 0 to 100 scale; for Foxtail, Giant plant response rating: 0 is no effect, 100 is complete control
# Method in brief: as §1
# [6] = tested on: pigweed (Amaranthus retroflexus); assay: Test A preemergence, pigweed; conditions: 0 to 100 scale; for Pigweed plant response rating: 0 is no effect, 100 is complete control
# Method in brief: as §1
# [7] = tested on: barnyardgrass (Echinochloa crus-galli); assay: Test A postemergence, barnyardgrass; conditions: 0 to 100 scale
# Method in brief: as §1
# kochia (Kochia scoparia) [8] = assay: Test A postemergence, kochia; conditions: 0 to 100 scale
# Method in brief: as §1
# [9] = tested on: ragweed (common ragweed, Ambrosia elatior); assay: Test A postemergence, ragweed; conditions: 0 to 100 scale
# Method in brief: as §1
# [10] = tested on: ryegrass, Italian (Lolium multiflorum); assay: Test A postemergence, Italian ryegrass; conditions: 0 to 100 scale
# Method in brief: as §1
# [11] = tested on: foxtail, giant (Setaria faberii); assay: Test A postemergence, giant foxtail; conditions: 0 to 100 scale
# Method in brief: as §1
# [12] = tested on: pigweed (Amaranthus retroflexus); assay: Test A postemergence, pigweed; conditions: 0 to 100 scale
# Method in brief: as §1
# [13] = tested on: wheat (Triticum aestivum); assay: Test A postemergence, wheat; conditions: 0 to 100 scale
# Method in brief: as §1
# corn (Zea mays) = assay: Test A postemergence, corn; conditions: 0 to 100 scale
# Method in brief: as §1
# [14] = tested on: blackgrass (Alopecurus myosuroides); assay: Test A postemergence, blackgrass; conditions: 0 to 100 scale
# Method in brief: as §1
# [15] = tested on: galium (catchweed bedstraw, Galium aparine); assay: Test A postemergence, galium; conditions: 0 to 100 scale
# Method in brief: as §1
# rice (Oryza sativa) = assay: Test B flooded paddy test, rice; conditions: Flood, 250 g ai/ha, applied to paddy water, 2-leaf stage, visual evaluation after 13 to 15 d
# Method in brief: (§2)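 Growth to two leaves preceded treatment. Flooding to 3 cm above soil surface, then water-applied compound; depth kept constant. Scored visually relative to controls after 13–15 d greenhouse; 100 means full control.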
# [16] = tested on: sedge, umbrella (small-flower umbrella sedge, Cyperus difformis); assay: Test B flooded paddy test, umbrella sedge; conditions: Flood, 250 g ai/ha, applied to paddy water, 2-leaf stage, visual evaluation after 13 to 15 d
# Method in brief: as §2
# [17] = tested on: ducksalad (Heteranthera limosa); assay: Test B flooded paddy test, ducksalad; conditions: Flood, 250 g ai/ha, applied to paddy water, 2-leaf stage, visual evaluation after 13 to 15 d
# Method in brief: as §2
# [18] = tested on: barnyardgrass (Echinochloa crus-galli); assay: Test B flooded paddy test, barnyardgrass; conditions: Flood, 250 g ai/ha, applied to paddy water, 2-leaf stage, visual evaluation after 13 to 15 d
# Method in brief: as §2
# [19] = 125 g ai/ha, 0 no effect, 100 complete control
# [20] = 500 g ai/ha, 0 no effect, 100 complete control
# [21] = 31 g ai/ha, 0 no effect, 100 complete control
compound,measurement,setting,value
CC(Nc1ncc(C(F)(F)F)c(N)n1)c1cc2c(Cl)cccc2o1 (stereo not drawn) [Compound 100],Barnyardgrass plant response rating,[1]; 125 g ai/ha,60
same,Barnyardgrass plant response rating,[1]; 500 g ai/ha,90
same,Kochia plant response rating,kochia (Kochia scoparia) [2]; 125 g ai/ha,90
same,Kochia plant response rating,kochia (Kochia scoparia) [2]; 500 g ai/ha,90
same,Ragweed plant response rating,[3]; 125 g ai/ha,50
same,Ragweed plant response rating,[3]; 500 g ai/ha,100
same,"Ryegrass, Italian plant response rating",[4]; 125 g ai/ha,0
same,"Ryegrass, Italian plant response rating",[4]; 500 g ai/ha,90
same,"Foxtail, Giant plant response rating",[5]; 125 g ai/ha,90
same,"Foxtail, Giant plant response rating",[5]; 500 g ai/ha,100
same,Pigweed plant response rating,[6]; 125 g ai/ha,100
same,Pigweed plant response rating,[6]; 500 g ai/ha,100
same,"Plant response rating, Barnyardgrass",[7]; [19],30
same,"Plant response rating, Barnyardgrass",[7]; [20],90
same,"Plant response rating, Kochia",kochia (Kochia scoparia) [8]; [19],60
same,"Plant response rating, Kochia",kochia (Kochia scoparia) [8]; [20],100
same,"Plant response rating, Ragweed",[9]; [19],60
same,"Plant response rating, Ragweed",[9]; [20],100
same,"Plant response rating, Ryegrass, Italian",[10]; [19],40
same,"Plant response rating, Ryegrass, Italian",[10]; [20],70
same,"Plant response rating, Foxtail, Giant",[11]; [19],20
same,"Plant response rating, Foxtail, Giant",[11]; [20],50
same,"Plant response rating, Pigweed",[12]; [19],100
same,"Plant response rating, Pigweed",[12]; [20],100
same,"Plant response rating, Wheat",[13]; [19],50
same,"Plant response rating, Wheat",[13]; [20],40
same,"Plant response rating, Corn",corn (Zea mays); [19],0
same,"Plant response rating, Corn",corn (Zea mays); [20],20
same,"Plant response rating, Blackgrass",[14]; [19],30
same,"Plant response rating, Blackgrass",[14]; [20],70
same,"Plant response rating, Galium",[15]; [19],100
same,"Plant response rating, Galium",[15]; [20],100
same,"Plant response rating, Rice (0 to 100 scale, 0 is no effect, 100 is complete control)",rice (Oryza sativa),0
same,"Plant response rating, Sedge, Umbrella (0 to 100 scale, 0 is no effect, 100 is complete control)",[16],35
same,"Plant response rating, Ducksalad (0 to 100 scale, 0 is no effect, 100 is complete control)",[17],20
same,"Plant response rating, Barnyardgrass (0 to 100 scale, 0 is no effect, 100 is complete control)",[18],45
Cc1cc2cc([C@@H](C)Nc3ncc(C(F)(F)F)c(N)n3)oc2cc1C [Compound 11],"Plant response rating, Barnyardgrass",[1]; 125 g ai/ha,20
same,"Plant response rating, Barnyardgrass",[1]; 500 g ai/ha,70
same,"Plant response rating, Kochia",kochia (Kochia scoparia) [2]; 125 g ai/ha,0
same,"Plant response rating, Kochia",kochia (Kochia scoparia) [2]; 500 g ai/ha,10
same,"Plant response rating, Ragweed",[3]; 125 g ai/ha,0
same,"Plant response rating, Ragweed",[3]; 500 g ai/ha,90
same,"Plant response rating, Ryegrass, Italian",[4]; 125 g ai/ha,20
same,"Plant response rating, Ryegrass, Italian",[4]; 500 g ai/ha,30
same,"Plant response rating, Foxtail, Giant",[5]; 125 g ai/ha,40
same,"Plant response rating, Foxtail, Giant",[5]; 500 g ai/ha,80
same,"Plant response rating, Pigweed",[6]; 125 g ai/ha,20
same,"Plant response rating, Pigweed",[6]; 500 g ai/ha,100
same,"Plant response rating, Barnyardgrass",[7]; 125 g ai/ha,20
same,"Plant response rating, Barnyardgrass",[7]; 500 g ai/ha,30
same,"Plant response rating, Kochia",kochia (Kochia scoparia) [8]; 125 g ai/ha,30
same,"Plant response rating, Kochia",kochia (Kochia scoparia) [8]; 500 g ai/ha,70
same,"Plant response rating, Ragweed",[9]; 125 g ai/ha,40
same,"Plant response rating, Ragweed",[9]; 500 g ai/ha,80
same,"Plant response rating, Ryegrass, Italian",[10]; 125 g ai/ha,0
same,"Plant response rating, Ryegrass, Italian",[10]; 500 g ai/ha,0
same,"Plant response rating, Foxtail, Giant",[11]; 125 g ai/ha,0
same,"Plant response rating, Foxtail, Giant",[11]; 500 g ai/ha,50
same,"Plant response rating, Pigweed",[12]; 125 g ai/ha,80
same,"Plant response rating, Pigweed",[12]; 500 g ai/ha,80
same,"Plant response rating, Wheat",[13]; 125 g ai/ha,0
same,"Plant response rating, Wheat",[13]; 500 g ai/ha,0
same,"Plant response rating, Corn",corn (Zea mays); 125 g ai/ha,40
same,"Plant response rating, Corn",corn (Zea mays); 500 g ai/ha,0
same,"Plant response rating, Blackgrass",[14]; 125 g ai/ha,0
same,"Plant response rating, Blackgrass",[14]; 500 g ai/ha,20
same,"Plant response rating, Galium",[15]; 125 g ai/ha,50
same,"Plant response rating, Galium",[15]; 500 g ai/ha,70
same,"Plant response rating, Rice (0 to 100 scale, 0 is no effect, 100 is complete control)",rice (Oryza sativa),0
same,"Plant response rating, Sedge, Umbrella (0 to 100 scale, 0 is no effect, 100 is complete control)",[16],0
same,"Plant response rating, Ducksalad (0 to 100 scale, 0 is no effect, 100 is complete control)",[17],0
same,"Plant response rating, Barnyardgrass (0 to 100 scale, 0 is no effect, 100 is complete control)",[18],0
C[C@@H](Nc1nc(N)c(C(F)(F)F)c(C(F)F)n1)c1cc2ccccc2o1 [Compound 111],Barnyardgrass plant response rating,[1]; 31 g ai/ha,0
same,Barnyardgrass plant response rating,[1]; 125 g ai/ha,0
same,Kochia plant response rating,kochia (Kochia scoparia) [2]; 31 g ai/ha,40
same,Kochia plant response rating,kochia (Kochia scoparia) [2]; 125 g ai/ha,70
same,Ragweed plant response rating,[3]; 31 g ai/ha,30
same,Ragweed plant response rating,[3]; 125 g ai/ha,90
same,"Ryegrass, Italian plant response rating",[4]; 31 g ai/ha,0
same,"Ryegrass, Italian plant response rating",[4]; 125 g ai/ha,0
same,"Foxtail, Giant plant response rating",[5]; 31 g ai/ha,0
same,"Foxtail, Giant plant response rating",[5]; 125 g ai/ha,10
same,Pigweed plant response rating,[6]; 31 g ai/ha,10
same,Pigweed plant response rating,[6]; 125 g ai/ha,70
same,"Plant response rating, Barnyardgrass",[7]; [21],10
same,"Plant response rating, Barnyardgrass",[7]; [19],0
same,"Plant response rating, Kochia",kochia (Kochia scoparia) [8]; [21],0
same,"Plant response rating, Kochia",kochia (Kochia scoparia) [8]; [19],60
same,"Plant response rating, Ragweed",[9]; [21],40
same,"Plant response rating, Ragweed",[9]; [19],50
same,"Plant response rating, Ryegrass, Italian",[10]; [21],0
same,"Plant response rating, Ryegrass, Italian",[10]; [19],0
same,"Plant response rating, Foxtail, Giant",[11]; [21],0
same,"Plant response rating, Foxtail, Giant",[11]; [19],0
same,"Plant response rating, Pigweed",[12]; [21],50
same,"Plant response rating, Pigweed",[12]; [19],80
same,"Plant response rating, Wheat",[13]; [21],0
same,"Plant response rating, Wheat",[13]; [19],0
same,"Plant response rating, Corn",corn (Zea mays); [21],0
same,"Plant response rating, Corn",corn (Zea mays); [19],20
same,"Plant response rating, Blackgrass",[14]; [21],0
same,"Plant response rating, Blackgrass",[14]; [19],0
same,"Plant response rating, Galium",[15]; [21],20
same,"Plant response rating, Galium",[15]; [19],50
same,"Plant response rating, Rice (0 to 100 scale, 0 is no effect, 100 is complete control)",rice (Oryza sativa),0
same,"Plant response rating, Sedge, Umbrella (0 to 100 scale, 0 is no effect, 100 is complete control)",[16],0
same,"Plant response rating, Ducksalad (0 to 100 scale, 0 is no effect, 100 is complete control)",[17],0
same,"Plant response rating, Barnyardgrass (0 to 100 scale, 0 is no effect, 100 is complete control)",[18],0
